Measurements: patent US20100204161A1, “Substances and Pharmaceutical Compositions for the Inhibition of Glyoxalases and Their Use Against Bacteria” (BIOMAC PRIVATINSTITUT FUR MEDIZINISHE UND ZAHMEDIZ …, priority 2005, published 2010)

Legend:
[1] = tested on: biofilms (biofilm-forming microorganisms from pipe water); experiment: Destruction of biofilms on contaminated silicone surfaces (colony forming units); assay type: cell-based; details: for Colony forming units derivable from biofilms after treatment: normalized to 1 cm2 inner tube surface
Procedure: Biofilms were allowed to generate in a silicon tube system according to Gebel et al. (2005). In short, pipe water from a public water distributor was used as the source of biofilm-forming microorganisms. Water flow was at about 20 l per hour through silicon tubes from two commercial suppliers with inner diameters of 4 mm for 30 days at 25° C. After that the tubes were emptied, sealed at both ends and treated on their outer surface with 0.2% peroxoacetic acid for 1 hour. Tubes were then rinsed with sterile water and afterwards cut into pieces of 5 cm length each using a sterile scalpel. Pieces obtained this way were then dipped into solutions which contained the substance to be tested or respective controls. 25 ml of the test solutions were used in closed Falcon tubes (50 ml). […] Tubes were opened over their full length with scissors and the material deposited at the original inner surfaces of the tubes homogenized in 10 ml of saline (9 g NaCl/l water). Dilutions were made (decimal steps to 10^4) and 0.1 ml of these solutions plated onto test agar plates (1 l contained 0.5 g yeast extract, 0.5 g peptone, 0.5 g casein hydrolysate, 0.5 g starch. 0.3 g potassium hydrogen phosphate, 24 mg magnesium sulphate, 0.3 g sodium pyruvate, 15 g agar). Plates were incubated for seven days at 20° C. Colonies which formed were counted on each plate independent of their appearance and color. […] Two dilutions must be consistent in colony numbers, taken into consideration the respective dilution factors. Numbers were normalized to 1 cm2 of the inner tube surface. Each substance was analysed in duplicates. Biofilms were treated with water (control), ethyl pyruvate […] Numbers are given for each of the different silicon tubes used.

yeast glyoxalase II = experiment: Enzymatic activity of yeast glyoxalase II (cell free extract, DTNB, 412 nm); assay type: biochemical, Saccharomyces cerevisiae; details: 0-20 mM; FIG. 4
Procedure: Protein concentration of the cell free extract was determined according to the Bradford method (Bradford, 1976).
The activity of the glyoxalase II (Hydroxyacyl glutathione hydrolase, E.C. 3.1.2.6.) was determined according to the instructions of Martins et al. (1999) in 0.1 M MES buffer, pH 6.5, 1.5 mM S-D-lactoyl-glutathione (L7140, Sigma-Aldrich Chemistry GmbH) and 0.75 mM DTNB (Sigma, D8130). After addition of suitable amounts of cell extract and an incubation period of 15 min at 25° C. the formation of glutathione was measured at 412 nm (ε=13.6 mM^−1 cm^−1). The activity of the glyoxalase II (IU) correlates with the amount of enzyme hydrolysing 1 μmol of S-D-lactoyl-glutathion/min.
The influence of ethyl pyruvate on the activity of the enzyme was investigated by adding increasing concentrations of EP (Sigma, No. E4, 780-8; Lot. S18972-513) (0-20 mM) to the measurement reagent.

[2] = molecular target: T1, glyoxalase II of human erythrocytes (Homo sapiens, UniProt Q16775); experiment: Enzymatic activity of human erythrocyte glyoxalase II (erythrocyte hemolysate); assay type: biochemical; details: 0-20 mM; FIG. 6
T1 construct: from tissue; host or cells: human erythrocyte hemolysate
Procedure: The determination of erythrocyte glyoxalase II (E.C.3.1.2.6., hydroxyacyl glutathione hydrolase) was performed according to the instructions of McLellan and Thornalley (1989). The principle is based on determining the initial hydrolysis of S-D-lactoyl-glutathione (L 7140, Sigma-Aldrich Chemie GmbH) in the presence of low amounts of a cell extract. Hydrolysis is observed on the basis of the reduction of the extinction at 240 nm (e=−3.1 mM-1 cm-1). Glyoxalase II activity (IU) correlates to the amount of enzyme hydrolysing 1 μmol of S-D-lactoyl-glutathione/min. The measurement was performed in 100 mM Tris-HCl buffer, pH 7.4. For this purpose 0.4 mM S-D-lactoyl-glutathione was added to 1 ml of the measuring reagent and the reaction was started by addition of suitable amounts (5-100 μl) of an erythrocyte hemolysate. The erythrocyte lysate was prepared according to the instructions of Mannervik et al. (1982).
Determination of glyoxalase II activity was performed according to the general protocol as described above. The influence of ethyl pyruvate on the activity of the enzyme was investigated by addition of increasing concentrations of EP (Sigma, no. E 4, 780-8; lot. S18972-513) (0-20 mM) to the measuring reagent.

[3] = tested on: different microbial species: Candida spp., Escherichia coli, Klebsiella oxytoca, Pseudomonas aeruginosa, Enterococcus faecalis, Enterococcus faecium, MRSA …; experiment: Agar dilution antimicrobial susceptibility test, aerobic conditions; details: 12.5 mM to 40 mM in agar, 37° C., 20 hours, 21 strains incl. ESBL and MRSA, FIG. 8
Procedure: The agar dilution method was used for antimicrobial susceptibility test. A series of plates (petri dishes; Greiner, Cat No. 933161) were prepared with 20 ml agar medium (Iso-Sensitest-Agar Ca. No. CM474, OXOID, Germany) to which various concentrations of EP (12.5 mM to 40 mM) were added. Control agar plates were prepared without EP. The plates are then inoculated with a suitable-standardized suspension of the test microbial species (10^4 cfu) using an automated spotter (spots 1-21). The agar plates were incubated under aerobic conditions at 37° C. for 20 hours. At the respective positions of the spots growth (if permissive under the selected conditions) will result in the formation of cell discs. The evaluation of the test results is performed by inspecting the sizes of these discs. […]

## CCOC(=O)C(C)=O [Ethyl pyruvate]
[1]; 10 mM, 30 min, first silicon tube
  Colony forming units derivable from biofilms after treatment: 4.9 × 10^3 colony forming units
[1]; 10 mM, 30 min, second silicon tube
  Colony forming units derivable from biofilms after treatment: 5.2 × 10^3 colony forming units
[1]; 10 mM, 120 min, first silicon tube
  Colony forming units derivable from biofilms after treatment: 1.6 × 10^3 colony forming units
[1]; 10 mM, 120 min, second silicon tube
  Colony forming units derivable from biofilms after treatment: 1.7 × 10^3 colony forming units
[1]; 25 mM, 30 min, first silicon tube
  Colony forming units derivable from biofilms after treatment: 4.4 × 10^2 colony forming units
[1]; 25 mM, 30 min, second silicon tube
  Colony forming units derivable from biofilms after treatment: 4.2 × 10^2 colony forming units
[1]; 25 mM, 120 min, first silicon tube
  Colony forming units derivable from biofilms after treatment: <10^2 colony forming units
[1]; 25 mM, 120 min, second silicon tube
  Colony forming units derivable from biofilms after treatment: <10^2 colony forming units
[1]; 25 mM, decreases from about 10^7, Table 5
  number of colony forming units after treatment of biofilm: < 10^2 colony forming units
[1]; compared to 0.1% peroxoacetic acid
  Effectiveness against biofilms compared to peroxoacetic acid: even more effective compared to a common disinfectant
Yeast glyoxalase II
  Influence on the enzymatic activity of yeast glyoxalase II: inhibits the reaction of yeast glyoxalase II in a concentration dependent manner
[2]
  Inhibition of the enzymatic activity of glyoxalase II of human erythrocytes: inhibits the reaction of glyoxalase II in a concentration dependent manner
[3]
  Effect on growth of different microbial species: effectively inhibits the growth and proliferation of different microbial species
